Structures can show the parent of a compound that is named as a salt.
Key:
[1] = system: sterol 27-hydroxylase (CHO cells); assay: Sterol 27-hydroxylase activity in CHO cells (metabolites in medium by GLC-MS); assay type: cell-based, Chinese hamster
Protocol: (§1) Bovine aortic endothelial (BAE) cells obtained from a slaughterhouse were plated at low density (2×10^5 cells/cm^2) in 100-mm dishes and were grown to confluence in Dulbecco's modified Eagle medium (DMEM) supplemented with 10% fetal bovine serum (FBS), 50 units/ml penicillin, and 50 units/ml streptomycin at 37° C. in a 5% CO2 atmosphere. The confluent monolayer was rinsed once with Hank's balanced salt solution, and 4 ml of DMEM containing 10% […] FBS and either 20 μM cholesterol dissolved in 2-hydroxypropyl-β-cyclodextrin or an equivalent amount of vehicle alone was added to each dish. Hep G2 cells and Chinese hamster ovary cells (CHO) were cultured under identical conditions and for the same length of time. At 24-h intervals, the media and cells were harvested. The medium obtained from each dish was analyzed for metabolites. Cells were pooled for immunoblot analysis.
(§2) Following acidification and extraction into ethyl acetate, the dried residue was saponified. In some studies, solvolysis was also done prior to extraction.
(§3) Using a Hewlett-Packard GLC-MS (Model #5890-5970) and a fused silica column (CP-sil 19 CB, 0.25 mm i.d., 25 m length; Chrompack, Raritan, N.J.), the appropriate TLC fractions were injected in the splitless mode with temperature programming from 260° C. to 270° C. at 1.0° C./min and a column head pressure of 5 psi.
(§4) For the C27 acid, the ion pair that was used was m/z […] [methyl ester acetate mol ion=476-60 (acetate)] and m/z 416, and for the C24 acid, m/z 370 [mol ion methyl ester acetate=430-60 (acetate)] and m/z 373.

[2] = system: sterol 27-hydroxylase (BAE cells); assay: Sterol 27-hydroxylase activity in BAE cells (metabolites in medium by GLC-MS); assay type: cell-based, bovine; details: for Synthesis by BAE cells: amount in medium: delipidated FBS + 20 nmol/ml cholesterol; for Proportion of C27 bile acid of total metabolite: cholesterol-supplemented medium
Protocol: as §1, §2, §3, §4

[3] = system: sterol 27-hydroxylase (Hep G2 cells); assay: Sterol 27-hydroxylase activity in Hep G2 cells (metabolites in medium by GLC-MS); assay type: cell-based; details: HEP G2 (n = 6), 72 h, 20 μM cholesterol; for Metabolites Derived from Sterol 27-Hydroxylase: 3βOH-5-cholen. a.: mean value of 2 dishes after solvolysis
Protocol: as §1, §2, §3, §4

HCT-8 cells = assay: In vitro cytotoxicity test of uridyl derivative with HCT-8 cells (FIG. 1); assay type: cell-based, human
Source text: The results of the experimentation is illustrated in FIG. 1.

[4] = system: intimal thickening of abdominal aorta; assay: Vascular injury model: balloon-injured rabbit aorta, intimal thickening by intimal/medial (I/M) ratio; assay type: in vivo, New Zealand white rabbits
Protocol: New Zealand white rabbits weighing 2.6 to 5.1 kgs were anesthetized with intramuscular ketamine 35 mg/kg. Additional injections of ketamine (100 mg/cc) and xylazine (20 mg/cc) in a 50/50 mixture were given as necessary in 1 ml increments. Keflin (Eli Lilly & Co.), 30/mg/kg was given intravenously (IV). A longitudinal incision was made on the medial aspect of the distal hind limb to expose the greater saphenous artery. Arteriotomy was performed, and a 3-F Fogarty embolectomy catheter (Edwards Laboratories, Santa Ana, Calif.) was introduced and advanced to the level of the diaphragmatic abdominal aorta. The catheter was withdrawn from the abdominal aorta with the balloon inflated to a pressure of about 20 mm hg. This maneuver was repeated for a total of three passes. The catheter was removed, and the saphenous artery was ligated. […]
The abdominal aortas were fixed by perfusion with glutaraldehyde at physiological pressure via a catheter (14G Intracath) placed in the left ventricle. […] The entire intimal and medial areas in more than 2 sections per specimen were measured using Lucida computer calculation (Micro Brightfield, Inc.). The degree of intimal thickening was determined by calculating the intimal to medial area (I/M) ratio. Statistical significance of the difference in intimal/medial ratio between groups was calculated using student t-test. […]

intimal proliferation = details: cited from earlier work
[5] = Nonfasted rabbits, treated
L1210 cells = assay: Cell proliferation of tumor cell line L1210; assay type: cell-based; details: read-out: Concentration of 27-Hydroxycholesterol Yielding 50% Growth Inhibition; L1210 cells (mouse leukemia cell line)
Source text: (§5) Conventional methods of cell culture were utilized in this experiment.

[6] = system: smooth muscle cells derived from human femoral artery; assay: Proliferation of smooth muscle cells derived from human femoral artery; assay type: cell-based; details: Human Femoral A, 72 hr, read-out: Percent of Control Growth
Protocol: (§6) Smooth muscle cells were cultured according to Ross (J. Cell. Biol., 50:172, 1971) from the intima-medial layer of male Sprague-Dawley rats (200-250 g). Cells were grown in monolayers at 37° C. in a humidified atmosphere of 5% CO2 in MEM supplemented with 10% FBS, 100 U/ml penicillin, 0.1 mg/ml streptomycin, […] tricine buffer and 1% non-essential amino acid solution (Corsini et al, Atherosclerosis, 101:117, 1993). The medium was changed every third day. Cells were used between the 4th and 10th passage. Cell viability was assessed by trypan blue exclusion. Smooth muscle cells were identified for growth behavior, morphology, and using monoclonal antibody specific for α-actin, using the isoform typical for smooth muscle cells. Human vascular myocytes were taken from a human femoral artery and grown under the same culture conditions.
(§7) Smooth muscle cells derived from rat aorta were seeded at a density of 2×10^5 and those from the femoral artery at a density of 5×10^4. […] Cell proliferation was determined at 72 hr either by trypsinization of the monolayer and counting in a model ZM Coulter Counter or by incorporation of tritiated thymidine after a 3 hr incubation.

HCT-8 = assay: Cell proliferation of tumor cell line HCT-8; assay type: cell-based; details: read-out: Concentration of 27-Hydroxycholesterol Yielding 50% Growth Inhibition; HCT-8 (human colon carcinoma)
Source text: as §5

[7] = in hydroxypropyl-beta-cyclodextrin vehicle
K-12 cells = assay: Cell proliferation of tumor cell line K-12; assay type: cell-based; details: K12, read-out: Concentration of 27-Hydroxycholesterol Yielding 50% Growth Inhibition; K-12 cells (adenocarcinoma line)
Source text: as §5

[8] = system: hamster aortic smooth muscle cells; details: six days, at the tested concentration; cited from earlier work
[9] = system: smooth muscle cells derived from rat aorta; assay: Proliferation of smooth muscle cells derived from rat aorta; assay type: cell-based, rat (male Sprague-Dawley); details: 72 hr
Protocol: as §6, §7

[10] = system: rabbit smooth muscle cells; assay: Rabbit smooth muscle cell proliferation (formazan formation from MTS); assay type: cell-based; details: 24 hr; for Optical density of wells (cell proliferation, MTS formazan): 20 μm, 5% delipidated FBS, control wells 0.402±0.037
Protocol: Cell proliferation at 24 hr was measured using formazan formation from MTS which is known to correlate with the number of cells present in each well.

restenosis = details: high doses, cited from earlier work
[11] = system: cholesterol synthesis and accumulation; details: cited from earlier work
[12] = CHO (n = 3), 72 h, 20 μM cholesterol
[13] = BAE (n = 6), 72 h, 20 μM cholesterol

CC(C)CCC[C@@H](C)[C@H]1CC[C@H]2[C@@H]3CC=C4C[C@@H](O)CC[C@]4(C)[C@H]3CC[C@]12C [cholesterol]
Metabolites Derived from Sterol 27-Hydroxylase, Total [1, 12]: 2 pmol/mg/cell protein
Metabolites Derived from Sterol 27-Hydroxylase, Total [2, 13]: 3029 pmol/mg/cell protein
Metabolites as percent of the cholesterol added to the medium ([2]; BAE cells, 20 nmol/ml cholesterol, 72 h): approximately 5.8%
Metabolites Derived from Sterol 27-Hydroxylase, Total [3]: 4033 pmol/mg/cell protein

C[C@@H](CO)CCC[C@@H](C)[C@H]1CC[C@H]2[C@@H]3CC=C4C[C@@H](OP(=O)(O)OC[C@H]5O[C@@H](n6ccc(=O)[nH]c6=O)[C@H](O)[C@@H]5O)CC[C@]4(C)[C@H]3CC[C@]12C [uridine derivative, sodium salt of 3-[(25R)-26-hydroxycholesteryl]5'-uridyl monophosphate]
Inhibition of cell viability: death of HCT-8 cells (HCT-8 cells; 500 μM): cell death
Percentage of viable cells (HCT-8 cells; 100 to 500 μM, after 5 days of exposure): drops dramatically

Cc1ccc(C(=O)Nc2ccc(S(=O)(=O)O)c3cc(S(=O)(=O)O)cc(S(=O)(=O)O)c23)cc1NC(=O)c1cccc(NC(=O)Nc2cccc(C(=O)Nc3cc(C(=O)Nc4ccc(S(=O)(=O)O)c5cc(S(=O)(=O)O)cc(S(=O)(=O)O)c45)ccc3C)c2)c1 [Suramin, suramin, reference compound]
Mean Intima/Media Ratio ([4]; Run I, 14-day, test group of 5 rabbits, suramin p < 0.05, 27-hydroxycholesterol 10 mg i.v. day before surgery, 5 mg day of surgery, 5 mg twice a day days 1 to 14, in 45% HPBCD): 0.4089 ± 0.034
Inhibition of intimal proliferation (intimal proliferation): shown to inhibit intimal proliferation

C[C@H](CCC(=O)O)[C@H]1CC[C@H]2[C@@H]3CC=C4C[C@@H](O)CC[C@]4(C)[C@H]3CC[C@]12C [3β-hydroxy-5-cholenoic acid]
Metabolites Derived from Sterol 27-Hydroxylase [1, 12]: not detected
Amount in the medium from CHO cells ([1]; compared with Hep G2 or BAE cells): small amount
Metabolites Derived from Sterol 27-Hydroxylase [2, 13]: not detected
Metabolites Derived from Sterol 27-Hydroxylase [3]: 1940 ± 270 pmol/mg/cell protein

C[C@@H](CO)CCC[C@@H](C)[C@H]1CC[C@H]2[C@@H]3CC=C4C[C@@H](O)CC[C@]4(C)[C@H]3CC[C@]12C [27-hydroxycholesterol, cholest-5-ene-3β, 27-diol]
Amount present in medium from CHO cells (below the limit of detection) ([1]; 72 h, cholesterol-supplemented medium): < 10 ng per assay
Metabolites Derived from Sterol 27-Hydroxylase [1, 12]: not detected
Distribution of Plasma 27-Hydroxycholesterol, LDL [5]: 55%
Metabolites Derived from Sterol 27-Hydroxylase [2, 13]: 2555 ± 348 pmol/mg/cell protein
Synthesis by BAE cells: amount in medium ([2]; 24 h): 1089 ± 111 pmol/ml medium
Synthesis by BAE cells: amount in medium ([2]; 48 h): 1064 ± 161 pmol/ml medium
Synthesis by BAE cells: amount in medium ([2]; 72 h): 1029 ± 99 pmol/ml medium
Reduction of the degree of intimal thickening as compared with the control group ([4]; Run II, 14 days): 1/2
IC50 (L1210 cells): 1.2 µM
activity at 1 µM ([6]; 1.0 μM): 100%
activity at 5 µM ([6]; 5.0 μM, p < 0.01): 53%
IC50 (HCT-8): 11.5 µM
Viscosity of preparation [7]: very viscous
IC50 (K-12 cells): 3.7 µM
Inhibition of proliferation [8]: about 50%
activity at 1 µM ([9]; 1.0 μM, read-out: Percent of Control Growth): 90%
activity at 5 µM ([9]; 5.0 μM, p < 0.01, read-out: Percent of Control Growth): 40%
activity at 7.5 µM ([9]; 7.5 μM, read-out: Percent of Control Growth): 18%
Optical density of wells (cell proliferation, MTS formazan) [10]: 0.350±0.021
Reduction of optical density compared to control wells ([10]; p<0.01): significant reduction
Metabolites Derived from Sterol 27-Hydroxylase [3]: 1622 ± 291 pmol/mg/cell protein

CC[C@H](C)C(=O)O[C@H]1C[C@@H](C)C=C2C=C[C@H](C)[C@H](CC[C@@H]3C[C@@H](O)CC(=O)O3)[C@H]21 [Lovastatin]
Restenosis (restenosis; six months following percutaneous transluminal coronary angioplasty): did not decrease restenosis
LDL-cholesterol level (restenosis): markedly decrease

CC(CN)CCC[C@@H](C)[C@H]1CC[C@H]2[C@@H]3CC=C4C[C@@H](O)CC[C@]4(C)[C@H]3CC[C@]12C (stereo partly drawn) [27-aminocholesterol]
Potency as inhibitor of cholesterol synthesis and accumulation relative to 27-hydroxycholesterol [11]: more potent

CC(CCC[C@@H](C)[C@H]1CC[C@H]2[C@@H]3CC=C4C[C@@H](O)CC[C@]4(C)[C@H]3CC[C@]12C)C(=O)O (stereo partly drawn) [3β-hydroxy-5-cholestenoic acid]
Metabolites Derived from Sterol 27-Hydroxylase [1, 12]: 2 ± 1 pmol/mg/cell protein
Metabolites Derived from Sterol 27-Hydroxylase [2, 13]: 474 ± 118 pmol/mg/cell protein
Proportion of C27 bile acid of total metabolite ([2]; BAE cells, 24 h): 3.8%
Proportion of C27 bile acid of total metabolite ([2]; BAE cells, 72 h): 17%
Synthesis by BAE cells: amount in medium ([2]; 24 h): 42.5 ± 6.1 pmol/ml medium
Synthesis by BAE cells: amount in medium ([2]; 48 h): 112 ± 12.4 pmol/ml medium
Synthesis by BAE cells: amount in medium ([2]; 72 h): 211 ± 48.3 pmol/ml medium
Optical density of wells (cell proliferation, MTS formazan) [10]: 0.357±0.22
Metabolites Derived from Sterol 27-Hydroxylase [3]: 471 ± 126 pmol/mg/cell protein

Reference: patent publication US5773431A (priority 1997, dated 1998)
